Where a name gives a salt, the structure may show the parent alone. Read-outs that look alike come from different tables or passages of the source.
What was measured:
[1] = cited from earlier work
[2] = cited from earlier work; remark: listed apart in the source
[3] = cited from earlier work; remark: listed apart in the source
[4] = rat, daily IV injections for 1 month; cited from earlier work
[5] = cited from earlier work; remark: listed apart in the source
[6] = cited from earlier work; remark: listed apart in the source
[7] = cited from earlier work; remark: listed apart in the source
[8] = pH of ketamine formulations and ketamine HCl solutions; assay type: physicochemical
[9] = elevated pHs around 5.5; cited from earlier work

sulfobutyl-ether-beta-cyclodextrin [SBE-β-CD]
osmolality ([1]; 20% solution, degree of substitution 6.5): 785 mOsm/kg
concentration iso-osmotic with blood and extracellular fluid ([1]; according to the manufacturer): 9.5-11.4%
solubility [2]: 600 mg/mL
amount found safe ([3]; 6 months, humans older than 2 years): ~250 mg/kg/day
tolerability ([3]; infusion rates 292 to 4375 mg/min): well-tolerated with no clinically relevant side effects or changes in renal biomarkers
NOEL [4]: 80 mg/kg

CNC1(c2ccccc2Cl)CCCCC1=O (centres unmarked) [ketamine, 2-(2-chlorophenyl)-2-(methylamino)cyclohexanone]
Metabolite Exposure ([5]; Intramuscular): Low
Metabolite Exposure ([5]; Intranasal): High
Metabolite Exposure ([5]; Intravenous): Low
Metabolite Exposure ([5]; Subcutaneous): Low
Metabolite Exposure ([5]; Sublingual): High
increase in exposure to undesirable inflammatory metabolites ([5]; oral dosing to reach equivalence to a short IV or IM treatment): up to 9 fold
increase in exposure to undesirable inflammatory metabolites ([5]; sublingual route): 3 fold
Bioavailability (grade) ([6]; Intramuscular): High
Bioavailability ([6]; Intranasal): 25-50%
Bioavailability (grade) ([6]; Intranasal): Low
Bioavailability ([6]; Intravenous): 100%
Bioavailability (grade) ([6]; Intravenous): Highest
Bioavailability ([6]; Oral): 11-20%
Bioavailability (grade) ([6]; Oral): Very Low
Bioavailability ([6]; Subcutaneous): >90%
Bioavailability (grade) ([6]; Subcutaneous): High
Bioavailability ([6]; Sublingual): 29%
Bioavailability (grade) ([6]; Sublingual): Low
Side Effects ([7]; Intramuscular): High
Side Effects ([7]; Intranasal): High
Side Effects ([7]; Intravenous): Moderate
Side Effects ([7]; Oral): Moderate
Side Effects ([7]; Subcutaneous): Low
Side Effects ([7]; Sublingual): Moderate

CC(O)COC[C@H]1O[C@@H]2O[C@H]3[C@H](O)[C@@H](O)[C@@H](O[C@H]4[C@H](O)[C@@H](O)[C@@H](O[C@H]5[C@H](O)[C@@H](O)[C@@H](O[C@H]6[C@H](O)[C@@H](O)[C@@H](O[C@H]7[C@H](O)[C@@H](O)[C@@H](O[C@H]8[C@H](O)[C@@H](O)[C@@H](O[C@H]1[C@H](O)[C@H]2O)O[C@@H]8COCC(C)O)O[C@@H]7COCC(C)O)O[C@@H]6COCC(C)O)O[C@@H]5COCC(C)O)O[C@@H]4COCC(C)O)O[C@@H]3COCC(C)O (stereo partly drawn) [HP-β-CD, hydroxypropyl-beta-cyclodextrin]
amount found safe ([3]; in vivo): ~250 mg/kg/day

CNC1(c2ccccc2Cl)CCCCC1=O (centres unmarked) [ketamine HCl, ketamine hydrochloride]
pH ([8]; 100 mg/mL (ketamine freebase equivalent) in water): around 4
average pH ([8]; measured in USP bottles of ketamine 100 mg/mL): 3.74
average pH ([8]; solutions formed from powdered ketamine HCl): 3.93
precipitation [9]: exhibit precipitation
